Data reported in publication PMC12090182, “Repurposing of the RIPK1-Selective Benzo[1,4]oxazepin-4-one Scaffold for the Development of a Type III LIMK1/2 Inhibitor” (ACS Chemical Biology, 2025).

Legend:
LIMK1 = LIMK1 (Homo sapiens, UniProt P53667); assay: NanoBRET cellular target engagement; assay type: cell-based; parameters: purchased Carna Biosciences; conditions: LIMK1, HEK293T cells
Experimental: (§1) The assay was performed as described previously.[31],[32] In brief, full-length LIMK1/2, RIPK1, BTK, and LRRK2 cloned in a frame in a NanoLuc-vector (Promega) were transfected into HEK293T cells (ATCC CRL-1573) using FuGENE HD (Promega, E2312), and proteins were allowed to express for 20 h. The serially diluted inhibitor and NanoBRET Kinase Tracer (Promega) used at the previously determined Tracer KD,app (Table S1) were pipetted into white 384-well plates (Greiner 781 207) using an ECHO 550 acoustic dispenser (Labcyte). The corresponding transfected cells were added and reseeded at a density of 2 × 10^5 cells/mL after trypsinization and resuspension in Opti-MEM without phenol red (Life Technologies). The system was allowed to equilibrate for 2 h at 37 °C and 5% CO2 prior to BRET measurements. To measure BRET, a NanoBRET Nano-Glo substrate and an extracellular NanoLuc inhibitor (Promega, N2160) were added as per the manufacturer's protocol, and filtered luminescence was measured on a PHERAstar plate reader (BMG Labtech) equipped with a luminescence filter pair (a 450 nm BP filter (donor) and a 610 nm LP filter (acceptor)). Competitive displacement data were then plotted using GraphPad Prism 10 software using a normalized three-parameter curve fit with the following equation: Y = 100/( [drawing 1] ).

LIMK2 = LIMK2 (Homo sapiens, UniProt P53671); assay: NanoBRET cellular target engagement; assay type: cell-based; parameters: full-length LIMK1/2, RIPK1, BTK, and LRRK2 cloned in a frame in a NanoLuc-vector (Promega); host or cells: HEK293T; conditions: LIMK2, HEK293T cells
Chain of LIMK2 (P53671 whole entry): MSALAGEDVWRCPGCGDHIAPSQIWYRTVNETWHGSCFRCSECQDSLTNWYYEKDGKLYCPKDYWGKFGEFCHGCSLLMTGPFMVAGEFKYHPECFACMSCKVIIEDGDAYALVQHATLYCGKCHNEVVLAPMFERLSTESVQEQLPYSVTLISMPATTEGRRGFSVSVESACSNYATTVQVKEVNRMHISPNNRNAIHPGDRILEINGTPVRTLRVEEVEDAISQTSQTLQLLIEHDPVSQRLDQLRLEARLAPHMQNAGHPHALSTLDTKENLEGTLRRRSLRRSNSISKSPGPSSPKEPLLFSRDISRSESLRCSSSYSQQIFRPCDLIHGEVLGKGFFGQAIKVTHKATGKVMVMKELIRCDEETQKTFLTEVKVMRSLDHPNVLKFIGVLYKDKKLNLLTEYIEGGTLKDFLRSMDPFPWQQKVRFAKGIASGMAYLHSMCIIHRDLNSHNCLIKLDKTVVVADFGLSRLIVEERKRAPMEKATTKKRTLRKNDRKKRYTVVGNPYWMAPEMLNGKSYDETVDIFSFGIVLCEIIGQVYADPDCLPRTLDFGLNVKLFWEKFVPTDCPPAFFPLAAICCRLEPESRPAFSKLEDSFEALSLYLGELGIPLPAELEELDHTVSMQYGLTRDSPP
Experimental: as §1

Chain of LIMK1 (P53667 whole entry): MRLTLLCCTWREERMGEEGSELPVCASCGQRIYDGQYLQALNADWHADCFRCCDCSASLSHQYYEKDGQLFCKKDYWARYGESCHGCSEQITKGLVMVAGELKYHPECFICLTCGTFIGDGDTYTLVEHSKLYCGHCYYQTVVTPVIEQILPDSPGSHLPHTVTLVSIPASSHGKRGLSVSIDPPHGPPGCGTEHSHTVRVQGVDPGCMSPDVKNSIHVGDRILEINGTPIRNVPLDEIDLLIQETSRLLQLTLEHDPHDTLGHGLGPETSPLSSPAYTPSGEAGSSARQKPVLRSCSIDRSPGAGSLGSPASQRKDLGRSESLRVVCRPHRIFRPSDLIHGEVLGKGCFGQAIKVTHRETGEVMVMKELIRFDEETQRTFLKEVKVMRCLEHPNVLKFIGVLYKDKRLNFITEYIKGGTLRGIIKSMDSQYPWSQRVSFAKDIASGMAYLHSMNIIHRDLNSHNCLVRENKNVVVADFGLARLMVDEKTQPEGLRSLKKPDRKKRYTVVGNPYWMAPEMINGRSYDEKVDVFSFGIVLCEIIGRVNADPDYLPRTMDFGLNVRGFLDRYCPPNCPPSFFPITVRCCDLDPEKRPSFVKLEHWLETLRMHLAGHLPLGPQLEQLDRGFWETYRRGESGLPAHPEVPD

CN1C(=O)[C@@H](N2CCc3cn(Cc4ccccc4)nc3C2=O)COc2ccccc21 [TP-030-1]
EC50 (LIMK1): 42 µM
EC50 (LIMK2): 38 µM
